# Measurements taken from patent US20170303554A1, “METHOD OF SANITIZING EDIBLE SEEDS, PARTICULARLY MUCILAGE PRODUCING SEEDS” (AGRI-NEO INC., priority 2014, published 2017).
# Key:
# Y&M (yeast and mold) = experiment: Yeast and mold (Y&M) count on sprayed seeds, grains and spices (Example 1); format: cell-based; settings: 40 L/tonne; for Y&M, Av: average; for Y&M, n1: replicate n1; for Y&M, n2: replicate n2
# Description: (§1) Seeds were mechanically cleaned and spread in stainless steel containers. Each 100 grams seeds were sprayed with 4 ml total solutions descried above via conventional trigger vaporizer. This solution is equivalent to 40 L disinfecting solution total sprayed on 1-tonne seeds. Seeds, grains and spices were selected to represent all families and types of seeds, grains and spices. Another criterium was to select seeds and grains contaminated with a high count of total aerobic bacteria, yeast, mold, E. coli, Salmonella sp. and other pathogenic microorganisms.
# (§2) Seeds, grains and spices treated were: • Whole dried pea, • Split pea dried, • Pea fiber, • Vanilla, • Chia, • Sprouted flax and chia, • Flax, • Hemp, and • Black pepper seeds
# [1] = tested on: Total count Aerobic bacteria; experiment: Total aerobic count on seeds, grains and spices sprayed with sanitizing solutions (Example 1); format: cell-based; settings: for bactericidal effect, conclusion in words: 40 L per 1 tonne
# Description: as §1, §2
smiles,measurement,setting,value
"CCO [2- Alcohol - ethanol, ethanol]","Y&M, Av",Y&M (yeast and mold); pea fiber,Y&M not detected
same,"Y&M, n1",Y&M (yeast and mold); pea fiber,"n1, n2 not detected"
same,"Y&M, n2",Y&M (yeast and mold); pea fiber,"n1, n2 not detected"
same,"Y&M, Av",Y&M (yeast and mold); whole dried pea,Y&M not detected
same,"Y&M, n1",Y&M (yeast and mold); whole dried pea,"n1, n2 not detected"
same,"Y&M, n2",Y&M (yeast and mold); whole dried pea,"n1, n2 not detected"
same,"Y&M, Av",Y&M (yeast and mold); whole split pea,Y&M not detected
same,"Y&M, n1",Y&M (yeast and mold); whole split pea,"n1, n2 not detected"
same,"Y&M, n2",Y&M (yeast and mold); whole split pea,"n1, n2 not detected"
same,"effect when combined with peracetic acid formulations (synergy), in words",[1]; black pepper,synergistic with peracetic acid
same,"bactericidal effect, conclusion in words",[1]; black pepper,not a strong bactericidal agent
same,"effect when combined with peracetic acid formulations (synergy), in words",[1]; hemp,synergistic with peracetic acid
same,"bactericidal effect, conclusion in words",[1]; hemp,not a strong bactericidal agent
same,"effect when combined with peracetic acid formulations (synergy), in words",[1]; pea fiber,synergistic with peracetic acid
same,"bactericidal effect, conclusion in words",[1]; pea fiber,not a strong bactericidal agent
same,"effect when combined with peracetic acid formulations (synergy), in words",[1]; split pea,synergistic with peracetic acid
same,"bactericidal effect, conclusion in words",[1]; split pea,not a strong bactericidal agent
same,"bactericidal effect, conclusion in words",[1]; sprouted flax and chia,bactericidal agent but not very strong
same,"effect when combined with peracetic acid formulations (synergy), in words",[1]; vanilla,synergistic with peracetic acid
same,"bactericidal effect, conclusion in words",[1]; vanilla,not a strong bactericidal agent
same,"effect when combined with peracetic acid formulations (synergy), in words",[1]; whole dried pea,synergistic with peracetic acid
same,"bactericidal effect, conclusion in words",[1]; whole dried pea,not a strong bactericidal agent
CC(=O)OO [Peracetic acid],"bactericidal effect, conclusion in words",[1]; black pepper,strong bactericidal agent
same,"bactericidal effect, conclusion in words",[1]; hemp,strong bactericidal agent
same,"bactericidal effect, conclusion in words",[1]; pea fiber,strong bactericidal agent
same,"bactericidal effect, conclusion in words",[1]; split pea,strong bactericidal agent
same,"bactericidal effect, conclusion in words",[1]; vanilla,strong bactericidal agent
same,"bactericidal effect, conclusion in words",[1]; whole dried pea,strong bactericidal agent
